The subject of experiment [1] is GPER-mediated signaling in SKBR3 cells. Nature of the experiment: Calcium mobilization assay in SKBR3 cells. In kind it is cell-based, human. The note with it: for significant dose-dependent increase in calcium mobilization compared to control: SKBR3 cells; for LOECs, activation of GPER signaling pathways: abstract summary over calcium mobilization and cAMP accumulation in SKBR3 cells. In general terms: A change in cytosolic calcium serves as a functional read-out for many receptors and channels.

The test system is the same in experiment [2]. In words: cAMP assay in SKBR3 cells. In kind it is cell-based, human. The note with it: for significant dose-dependent increase in cAMP production compared to control / LOEC, cAMP production: SKBR3 cells; for LOEC, cAMP production: 30 min treatment. The method, then: SKBR3 cells ( 2×10^4 cells) were seeded in 96-well microplates which were precoated with a capture antibody for the cAMP-antibody complex (Invitrogen). […].
A general note: Changes in cAMP serve as a functional read-out for many G protein-coupled receptors.

For a further experiment, the system named is ERα. Also noted: method as in Li et al. 2013. As to conditions: ref Li et al. 2013; cited from earlier work.
Experiment [3] concerns the target T1, GPER (Homo sapiens, UniProt Q99527). Nature of the experiment: cell-based.
Experiment [4] addresses T1, GPER. In words: SKBR3 cell-based fluorescence competitive binding assay (E2-F probe, flow cytometry).
In experiment [5] the test system is SKBR3 cells. Nature of the experiment: Wound-healing cell migration assay. In kind it is cell-based, human. The note with it: for LOEC, SKBR3 cell migration, wound-healing assay: 48 h; for LOECs, promotion of SKBR3 cell migration via GPER pathways: abstract summary over Boyden chamber and wound-healing assays. Here is the method: For the wound-healing assays, SKBR3 cells were seeded in 12-well microplates at a density of 2.5×10^5 cells/well, incubated first in phenol red–free RPMI 1640 with 10% FBS for 12 h and then in phenol red–free RPMI 1640 without FBS for another 12 h. The cell layer was wounded with a sterile 200-μL pipet tip and washed 3 times with phenol red–free RPMI 1640. […] The closure of the scratch was photographed using an inverted microscope (ROCTEC) coupled to a camera (Canon). The change in the scratch area was evaluated using Image-Pro Plus 6.0 (Media Cybernetics). The relative cell migration was calculated by comparing the change in the wound area in the treated wells with those in the control wells.

In experiment [6] the test system is SKBR3 cells. In words: Boyden chamber cell migration assay. In kind it is cell-based, human. As to conditions: for LOEC, SKBR3 cell migration, Boyden chamber assay: 48 h. The method, then: SKBR3 cell migration was evaluated using Boyden chamber and wound-healing assays as described previously with slight modification ([Cao et al. 2017]). For the Boyden chamber assay, 24-well plates containing cell culture inserts with 8-μm pore size (Corning) were used. The cells ( 8×10^4 cells, 100μL ) were seeded in the upper chamber, and the lower chamber was supplied with 600μL phenol red–free RPMI 1640 with 10% FBS (Invitrogen). After 12 h, the cells were incubated with phenol red–free RPMI 1640 without FBS for another 12 h. […] After incubation for 48 h, the cells on the upper side of the insert membrane were removed with cotton swabs, and the cells on the lower surface of the membrane were fixed with methanol for 10 min and stained with 0.1% crystal violet (Sigma-Aldrich). Then, the cells were counted under an inverted microscope (ROCTEC) coupled to a camera (Canon), and six fields were randomly chosen per chamber. The relative cell migration was determined by comparing the average number of cells in the six fields of the treated chamber to those in the control chamber.

For a further experiment, the system named is human GPER. Also on record: method as in Thomas and Dong 2006. The note with it: ref Thomas and Dong 2006; cited from earlier work.
The test system of the next experiment is rats. As to conditions: exposure of pregnant rats, 1–10mg/kg, cited from earlier work.
For a further experiment, the system named is SH-SY5Y cells. Also noted: method as in Tian et al. 2016. The note with it: activity inhibited by GPER antagonist G15; ref Tian et al. 2016; cited from earlier work.
The test system of another experiment is zebrafish GPER. Also noted: method as in Fitzgerald et al. 2015. As to conditions: ref Fitzgerald et al. 2015, cited from earlier work; for binding to zebrafish GPER at a single tested concentration: 1μM.
The mark [7] stands for this setting: E2-treated SKBR3 cells, G15 pretreatment 2 h.
[8] abbreviates: ratio between IC50 of E2 and compounds, E2 = 100%.

Read-outs that look alike come from different tables or passages of the source.

Here are results for 26 compounds from publication PMC6071991, “Hydroxylated Polybrominated Biphenyl Ethers Exert Estrogenic Effects via Non-Genomic G Protein–Coupled Estrogen Receptor Mediated Pathways” (Environmental Health Perspectives, 2018).

T1 sequence (Q99527 whole entry): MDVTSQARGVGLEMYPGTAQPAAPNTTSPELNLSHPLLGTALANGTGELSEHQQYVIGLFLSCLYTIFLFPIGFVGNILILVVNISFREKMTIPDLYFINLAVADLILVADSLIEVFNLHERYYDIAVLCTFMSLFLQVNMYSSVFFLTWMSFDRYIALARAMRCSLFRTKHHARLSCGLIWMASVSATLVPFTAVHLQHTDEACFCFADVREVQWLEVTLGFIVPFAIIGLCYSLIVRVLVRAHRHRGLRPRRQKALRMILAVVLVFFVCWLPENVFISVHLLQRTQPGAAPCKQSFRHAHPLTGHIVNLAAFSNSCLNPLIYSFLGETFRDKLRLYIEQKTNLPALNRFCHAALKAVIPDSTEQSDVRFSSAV

Take `Oc1c(Br)cc(Br)c(Oc2ccc(Br)cc2Br)c1Br` [3-OH-BDE-100, 3-hydroxy-2,2',4,4',6-pentabromodiphenyl ether]: the “significant dose-dependent increase in calcium mobilization compared to control” value in [1] is recorded as “exceptions”. In addition, the “significant dose-dependent increase in cAMP production compared to control” value in experiment [2] is “exceptions”. Also, the “type of activity on ERα” value with ERα is “antagonists”. The 50% inhibitory concentration (IC50) – broadly, the midpoint of a concentration-inhibition curve – against GPER [3] came to 3.6 µM. The “RBA (relative binding affinity)” value on GPER [4] came out at 7.2%.
On to `Brc1cc2c(cc1[C@@H]1Nc3ccccc3[C@@H]3C=CC[C@@H]31)OCO2` [G15, reference compound], for which the “calcium mobilization after G15 pretreatment versus vehicle pretreatment” value in experiment [1] (setting [7]) is reported as “significantly lower”. Also, the “cAMP production after G15 pretreatment versus vehicle pretreatment” value in experiment [2] (setting [7]) is listed as “significantly lower”. In addition, in the experiment on SKBR3 cells [5] (1μM OH-PBDEs, 10μM G15), the “cell migration after G15 pretreatment versus OH-PBDE alone, wound-healing” value is recorded as “significantly less cell migration”. In addition, the “cell migration after G15 pretreatment versus OH-PBDE alone, Boyden chamber” value in the experiment with SKBR3 cells [6] (1μM OH-PBDEs, 10μM G15) is “significantly less cell migration”.
On GPER [3], `Oc1c(Br)c(Br)c(Oc2c(Br)cc(Br)c(Br)c2Br)c(Br)c1Br` [4ʹ-OH-BDE-201, 4'-hydroxy-2,2',3,3',4,5',6,6'-octabromodiphenyl ether] came in with an IC50 of 5.3 µM. Further, on GPER [4] (setting [8]), the “RBA (relative binding affinity)” value is listed as 4.9%.
On to `CC(=O)c1ccc2c(c1)C1C=CCC1C(c1cc3c(cc1Br)OCO3)N2` (stereo not drawn) [G1, reference compound], for which, in experiment [2], the “LOEC, cAMP production” value came to 1 nM. The “LOEC, SKBR3 cell migration, wound-healing assay” value (“LOEC … wound-healing assay” for short) with SKBR3 cells [5] is on record as 1 nM. In addition, the “LOEC, SKBR3 cell migration, Boyden chamber assay” value (“LOEC … Boyden chamber assay” for short) with SKBR3 cells [6] was 1 nM.
Regarding `O=c1c(-c2ccc(O)cc2)coc2cc(O)cc(O)c12` [genistein], the “RBA to human GPER compared to E2” value in the experiment with human GPER is listed as 1.3–13.4%.
The compound `Oc1ccccc1Oc1ccc(Br)cc1` [2ʹ-OH-BDE-003, 2'-hydroxy-4-monobromodiphenyl ether] gave an IC50 on GPER [3] of 20 µM. Further, at GPER [4] (setting [8]), the “RBA (relative binding affinity)” value was 1.3%.
With `Oc1cc(Br)c(Oc2ccc(Br)cc2Br)cc1Br` [4ʹ-OH-BDE-049, 4'-hydroxy-2,2',4,5'-tetrabromodiphenyl ether], in experiment [1], the “LOECs, activation of GPER signaling pathways” value (from here on “LOECs, activation”) was in the range of 10 to 100 nM. Also, in the experiment on SKBR3 cells [5], the “LOEC … wound-healing assay” value was found to be 1000 nM and the “LOECs, promotion of SKBR3 cell migration via GPER pathways” value (“LOECs, promotion” below) lay in the range of 0.1 to 1 µM. For the same compound, in the experiment with SKBR3 cells [6] (text: same LOECs as for the wound-healing assay), the “LOEC … Boyden chamber assay” value came to 1000 nM. The midpoint of inhibition on GPER [3], the IC50, lay at 2.8 µM. In addition, the “RBA (relative binding affinity)” value on GPER [4] (setting [8]) worked out at 9.3%.
Turning to nonylphenol, the “RBA to human GPER compared to E2” value in the experiment with human GPER is reported as 1.3–13.4%.
For `Clc1ccc(C(c2ccc(Cl)cc2)C(Cl)(Cl)Cl)cc1` [2,2-bis(p-chlorophenyl)-1,1,1-trichloroethane], the “RBA to human GPER compared to E2” value in the experiment on human GPER is recorded as 0.2–1.3%.
Regarding `Clc1ccc(C(c2ccccc2Cl)C(Cl)Cl)cc1` (stereo not drawn) [2-(2-chlorophenyl)-2-(4-chlorophenyl)-1,1-dichloroethane], the “RBA to human GPER compared to E2” value in the experiment with human GPER is recorded as 0.2–1.3%.
Regarding `Oc1c(Br)cc(Br)c(Oc2cc(Br)c(Br)cc2Br)c1Br` [3ʹ-OH-BDE-154, 3'-hydroxy-2,2',4,4',5,6'-hexabromodiphenyl ether], the “LOECs, activation” value in experiment [1] was 10 to 100 nM. In addition, in the experiment on SKBR3 cells [5], the “LOEC … wound-healing assay” value was 100 nM and the “LOECs, promotion” value lay within 0.1 to 1 µM. Also, the “LOEC … Boyden chamber assay” value in the experiment on SKBR3 cells [6] came out at 100 nM. The “type of activity on ERα” value in the experiment on ERα was “antagonists”. The compound also showed an IC50 at GPER [3] of 1.3 µM.
Take `Oc1cc(Oc2cc(Br)c(Br)cc2Br)c(Br)cc1Br` [5ʹ-OH-BDE-099, 5'-hydroxy-2,2',4,4',5-pentabromodiphenyl ether]: in experiment [1], the “LOECs, activation” value was in the range of 10 to 100 nM. For the same compound, in the experiment with SKBR3 cells [5], the “LOEC … wound-healing assay” value is 100 nM and the “LOECs, promotion” value lay within 0.1 to 1 µM. The “LOEC … Boyden chamber assay” value with SKBR3 cells [6] was determined as 100 nM. The “type of activity on ERα” value in the experiment with ERα is “antagonists”. Further, the IC50 against GPER [3] came to 1.3 µM.
Consider `Brc1ccc(Oc2cc(Br)c(Br)cc2Br)c(Br)c1` [BDE-099, 2,2',4,4',5-pentabromodiphenyl ether], for which the “estrogen target genes in the uterus of female offspring” value with rats (ref Ceccatelli et al. 2006) is on record as “changes in the regulation of estrogen target genes”. Further, the “sex steroid levels in male and female offspring” value with rats (ref Lilienthal et al. 2006) is “decreases in sex steroid levels”.
For `Oc1c(Br)ccc(Oc2ccc(Br)cc2Br)c1Br` [3-OH-BDE-047, 3-hydroxy-2,2',4,4'-tetrabromodiphenyl ether], the “significant dose-dependent increase in calcium mobilization compared to control” value in experiment [1] is “exceptions”. Besides, the “significant dose-dependent increase in cAMP production compared to control” value in experiment [2] is given as “exceptions”. Moreover, on GPER [4], the IC50 amounted to 12 µM and the “RBA (relative binding affinity)” value amounted to 2.2%.
`Oc1cc(Br)c(Br)c(Br)c1Oc1ccc(Br)cc1Br` [6-OH-BDE-085, 6-hydroxy-2,2',3,4,4'-pentabromodiphenyl ether]: the “type of activity on ERα” value in the experiment with ERα is listed as “antagonists”.
`Oc1cc(Oc2ccc(Br)cc2Br)ccc1Br` [3ʹ-OH-BDE-028, 3'-hydroxy-2,4,4'-tribromodiphenyl ether] came in with an IC50 at GPER [3] of 3 µM. On GPER [4] (setting [8]), the “RBA (relative binding affinity)” value came to 8.7%.
For the compound `Brc1ccc(Oc2ccc(Br)cc2Br)c(Br)c1` [BDE-047, 2,2',4,4'-tetrabromodiphenyl ether], the “effect on migration of SH-SY5Y cells” value in the experiment on SH-SY5Y cells is recorded as “stimulated the migration”.
As for `C[C@]12CC[C@@H]3c4ccc(O)cc4CC[C@H]3[C@@H]1CC[C@@H]2O` [E2, 17β-estradiol, reference compound], the “LOEC, cAMP production” value in [2] stood at 1 nM. In addition, the “LOEC … wound-healing assay” value in the experiment on SKBR3 cells [5] is 1 nM. In the experiment with SKBR3 cells [6], the “LOEC … Boyden chamber assay” value amounted to 1 nM.
For `Oc1ccc(-c2cc(Cl)ccc2Cl)c(Cl)c1` [4-hydroxy-2,2ʹ,5ʹ-trichloro-biphenyl], the “RBA to human GPER compared to E2” value with human GPER was 0.2–1.3%.
For the compound `CC(C)(c1cc(Cl)c(O)c(Cl)c1)c1cc(Cl)c(O)c(Cl)c1` [tetrachlorobisphenol A], the “binding to zebrafish GPER at a single tested concentration” value with zebrafish GPER was “effective binding”.
`Oc1c(Br)c(Br)c(Br)c(Br)c1Oc1cc(Br)c(Br)cc1Br` [6-OH-BDE-180, 6-hydroxy-2,2',3,4,4',5,5'-heptabromodiphenyl ether] came in with an IC50 against GPER [3] of 4.8 µM. On GPER [4] (setting [8]), the “RBA (relative binding affinity)” value came to 5.4%.
`Oc1c(Br)c(Br)c(Oc2cc(Br)c(Br)cc2Br)c(Br)c1Br` [4-OH-BDE-187, 4-hydroxy-2,2',3,4',5,5',6-heptabromodiphenyl ether]: the IC50 against GPER [3] worked out at 6.2 µM. Further, at GPER [4] (setting [8]), the “RBA (relative binding affinity)” value was 4.2%.
For the compound `CC(C)(c1ccc(O)cc1)c1ccc(O)cc1` [BPA, bisphenol A], the “RBA to human GPER compared to E2” value with human GPER is recorded as 2.8%. The “RBA to zebrafish GPER” value with zebrafish GPER was 15.8%.
In the case of `O=C1C2(Cl)C3(Cl)C4(Cl)C(Cl)(Cl)C5(Cl)C3(Cl)C1(Cl)C5(Cl)C24Cl` (stereo not drawn) [kepone], the “RBA to human GPER compared to E2” value in the experiment with human GPER is listed as 1.3–13.4%.
`Oc1cccc(Oc2ccc(Br)cc2Br)c1` [3ʹ-OH-BDE-007, 3'-hydroxy-2,4-dibromodiphenyl ether]: the IC50 against GPER [3] came to 2.6 µM. Also, on GPER [4] (setting [8]), the “RBA (relative binding affinity)” value is on record as 10.0%.
Take `CC(C)(c1cc(Br)c(O)c(Br)c1)c1cc(Br)c(O)c(Br)c1` [tetrabromobisphenol A]: in the experiment with zebrafish GPER, the “binding to zebrafish GPER at a single tested concentration” value is listed as “effective binding”.
